Reference: patent US6355663B1, “Substituted isoxazolylthiophene compounds” (Taisho Pharmaceutical Co., Ltd., priority 1998, dated 2002)

Assays:
[1] = test system: osteoblasts derived from the parietal bone of rat fetus; experiment: Enhancing activity for the nodule induction in osteoblasts; type: cell-based; conditions: rat fetal parietal bone osteoblasts
Experimental: The compounds of the invention were determined for an enhancing activity for the nodule induction in osteoblasts derived from the parietal bone of rat fetus. Results were 342% at 1.0 μg/ml for Example 1, 501% at 2.5 μg/ml for Example 3, 576% at 2.5 μg/ml for Example 7 and 550% at 2.5 μg/ml for Example 9, respectively.

[2] = test system: osteoblasts derived from the parietal bone of rat fetus; experiment: Enhancing activity for the induction of alkaline phosphatase production in osteoblasts; type: cell-based; conditions: test compound 2.5 μg/ml; compared with activity without the test compound; rat fetal parietal bone osteoblasts
Experimental: The compounds of the present invention were determined for an enhancing activity for the induction of alkaline phosphatase production in osteoblasts derived from the parietal bone of rat fetus. Enhancing activities for the induction of alkaline phosphatase production at a concentration of the test compound of 2.5 μg/ml were 195% for Example 1, 155% for Example 3, 187% for Example 7 and 134% for Example 9, respectively, when compared with those activities without the test compounds.

Row | melting point [°C] | Compound | Enhancing activity for the nodule induction ([1]; at 2.5 μg/ml) [%] | Enhancing activity for the induction of alkaline phosphatase production [2] [%] | Enhancing activity for the nodule induction ([1]; at 1.0 μg/ml) [%]
1 | – | CCc1cnoc1-c1c(SC)sc(C(N)=O)c1C [Example 7, 4-(4-Etkylisoxazol-5-yl)-3-methyl-5-(methylthio)-thiophene-2-carboxamide] | 576 | 187 | –
2 | 93.5 to 94.5 | CCc1c(C(N)=O)sc(SC)c1-c1oncc1C [Example 3, 3-Ethyl-4-(4-methylisoxazol-5-yl)-5-(methylthio)thiophene-2-carboxamide] | 501 | 155 | –
3 | – | CSc1sc(C(N)=O)c(C)c1-c1oncc1C(C)C [Example 9] | 550 | 134 | –
4 | – | CSc1sc(C(N)=O)c(C)c1-c1oncc1C [Example 1, 3,4′-Dimethyl-4-(isoxazol-5-yl)-5-(methylthio)thiophene-2-carboxamide] | – | 195 | 342
